Measured values taken from patent US6664271B1, “Immunopotentiator agents” (Eli Lilly and Company, priority 1999, dated 2003).
Marks after values point to notes of the source that are not given here.

Tests used:
[1] = tested on: mononuclear leukocytes; assay: mammalian T-lymphocyte blastogenesis assay, non-human primate (Example 75); type: cell-based
Experimental: (§1) The compound prepared in Example 30, namely (S)-ethyl 1-(2-thiopheneacetyl)-3-peridinecarboxylate, was further evaluated for in vitro T-lymphocyte blastogenic activity from mammalian species other than avian.
(§2) The mammalian blastogenesis assays were conducted with the same protocol as the vian assays with the following exceptions:
(§3) 1. Only mononuclear leukocytes are used for the mammalian assay. The cells are obtained from whole blood by differential centrifugation using Histopague 1.077 (Sigma Chemical Company, St. Louis, Mo).
(§4) 2. 0.5% Fetal Bovine Serum (FBS) [GIBCOBRL, Grand Island N.Y.] is added to RPMI 1640 medium. Exception: Non-human primate plasma is used instead of FBS at 5 ml/liter to RPMI 1640 medium.
(§5) 3. 5×10^5 cells/well were used with the mammalian assays.

[2] = tested on: mononuclear leukocytes; assay: mammalian T-lymphocyte blastogenesis assay, canine (Example 75); type: cell-based
Experimental: as §1, §2, §3, §4, §5

[3] = tested on: mononuclear leukocytes; assay: mammalian T-lymphocyte blastogenesis assay, bovine (Example 75); type: cell-based
Experimental: as §1, §2, §3, §4, §5

[4] = tested on: E. coli 19B; assay: bacterial clearance of E. coli from peripheral blood of neonatal chicks (Example 77); type: in vivo, chick; details: single subcutaneous injection of 25 μg, E. coli challenge, blood 14-18 hours post-challenge
Experimental: The compounds of Example 15 ((S)-ethyl 1-benzoyl-3-piperidinecarboxylate), Example 29 (1-benzoyl-3-butyrylpiperidine), Example 30 ((S)-ethyl 1-(2-thiopheneacetyl)-3-piperidinecarboxylate) and Example 68 ((S)-ethyl 1-benzyl-3-piperidinecarboxylate 1-methiodide), respectively, were tested to determine whether a single subcutaneous injection enhanced the bacterial clearance of E. coli from the peripheral blood of neonatal chicks. Bacterial clearance is a measurement of cell-mediated immunity, specifically, phagocyte function, in animals. An approved Animal Care and Use Committee protocol governed the activity in this experiment.
1 ml syringes with 21 g 1″ needles (Becton Dickinson and Company Franklin Lakes, N.J. 07417-1884); 1 ml syringe with 25 g ⅝″ needles (Becton Dickinson and Company Franklin Lakes, N.J. 07417-1884); EMB agar plates (Difco Laboratories, Becton Dickinson Microbiology Systems, Sparks, Md. 21152); Culture tubes (14 ml polystyrene round bottom, Becton Dickinson Labware, Franklin Lakes, N.J. 07417-1886); Dulbecco's Phosphate Buffered Saline w/o Mg^++ or Ca^++ (Gibco BRL, Life Technologies Rockville, Md. 20850). Peterson x Hubbard male chicks (day of hatch from a commercial hatchery) were utilized
160 chicks were divided into 6 groups: Group 1=Controls (acetate-buffered saline vehicle); Group 2=Compound of Example 15 ((S)-ethyl 1-benzoyl-3-piperidinecarboxylate); Group 3=Compound of Example 29 (1-benzoyl-3-butyrylpiperidine); Group 4=Compound of Example 30 ((S)-ethyl 1-(2-thiopheneacetyl)-3-piperidinecarboxylate); Group 5=Compound of Example 68 ((S)-ethyl 1-benzyl-3-piperidinecarboxylate 1-methiodide); and Group 6=environmental controls. Groups 1-5 contained 3 replicates of 10 chicks each and Group 6 contained 1 replicate of 10 chicks.
Day −2 Upon arrival, day of hatch chicks were randomized (10/group), and placed in a Petersime heated brooder battery unit (Petersime Incubator Company, Gettysburg, Ohio 45328). […] All chicks were given ad libitum access to a commercially available starter feed and water.
Day 0 11:00 AM. Five to ten colonies of E. coli 19B were selected from a fresh overnight blood agar plate (TSA II with 5% sheep blood, Becton Dickinson Microbiology Systems Cockeysville, Md. 21030) and placed into 100 ml Brain Heart Infusion broth (Difco Laboratories, Becton Dickinson Microbiology Systems Sparks, Md. 21152) in a flask. […]
Day 5 EMB plates were removed from the incubator and bacterial colonies were counted and recorded to calculate CFU/ml/chick.
Data was transformed to logio values, and analysis of variance was used to determine significant differences between the treatment groups and controls. Data was expressed as the percentage of enhancedbacterial clearance compared to E. coli-challenged controls. […]

`CCOC(=O)[C@H]1CCCN(C(=O)Cc2cccs2)C1` [Example 30, (S)-Ethyl 1-(2-Thiopheneacetyl)-3-piperidinecarboxylate] gave an MSC [1] of 10 μg μg/ml, an MTC [1] of 1 mg/mL and an MSC [2] of 1 μg μg/ml. The MTC [2] was 100 µg/mL, the MSC [3] was 10 μg μg/ml and the MTC [3] was 1 mg/mL. For the same compound, the “% Enhanced Clearance Compared to Controls” value [4] was 61* %.
